Results as given in patent US10189809B2, “SGC stimulators” (Ironwood Pharmaceuticals, Inc., priority 2010, dated 2019).
Read-outs that look alike come from different tables or passages of the source.

Legend:
[1] = test system: Thoracic aortic rings; assay: Alternative thoracic aortic rings assay (Example 19b; resting tension as 100% inhibition); set-up: species or system rat; details: Rattus norvegicus, Table 10B; for inhibition at 1 µM: read-out: Percent Relaxation at 1 μM; for inhibition at 3 µM: read-out: Percent Relaxation at 3 μM; for EC50: read-out: Aortic Ring EC50; for inhibition at 10 µM: read-out: Percent Relaxation at 10 μM
Procedure, shortened: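 Aortic rings (~2 mm) from male Sprague-Dawley rats (275-299 g) held at 1.0 g resting tension in Krebs-Henseleit at 37 °C under 95% O2/5% CO2, then precontracted with 100 ng/mL phenylephrine. Compounds in DMSO added cumulatively; relaxation recorded by force transducer and EC50 taken from concentration-response curves.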

[2] = target: T1, soluble guanylate cyclase (sGC) (Homo sapiens (Human), UniProt Q02108+Q02153); assay: sGC-HEK-cGMP assay run with SNP incubation (HEK WC assay); type: cell-based; details: for HEK WC Assay (fold increase at 30 μM in the presence of 10 μM SNP): compound at 30 μM; for EC50: in the presence of 10 uM SNP
Procedure, shortened: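 HEK293 cells with endogenous sGC were pretreated with 0.5 mM IBMX for 15 min at 37 °C, then exposed to test compound plus sodium nitroprusside for 10 min at 37 °C.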

[3] = target: T1, soluble guanylate cyclase (sGC); assay: sGC-HEK-cGMP assay run in the absence of SNP (HEK WC assay); type: cell-based; details: compound at 30 μM, absence of SNP
Procedure, shortened: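 HEK293 cells with endogenous sGC, preincubated 15 min at 37° C with 0.5 mM IBMX, then exposed to test compound 10 min at 37° C without SNP. Cells lysed in 0.1 M HCl; cGMP quantified by LC/MS against a standard curve. EC50 from concentration-response curves.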

[4] = read-out: HEK WC Assay (% Emax at 1 μM with 10 uM SNP)
[5] = read-out: HEK WC Assay (% Emax at 10 μM with 10 uM SNP)
[6] = read-out: HEK WC Assay (% Emax at 30 μM with 10 uM SNP)

T1 sequence (Q02153 whole entry): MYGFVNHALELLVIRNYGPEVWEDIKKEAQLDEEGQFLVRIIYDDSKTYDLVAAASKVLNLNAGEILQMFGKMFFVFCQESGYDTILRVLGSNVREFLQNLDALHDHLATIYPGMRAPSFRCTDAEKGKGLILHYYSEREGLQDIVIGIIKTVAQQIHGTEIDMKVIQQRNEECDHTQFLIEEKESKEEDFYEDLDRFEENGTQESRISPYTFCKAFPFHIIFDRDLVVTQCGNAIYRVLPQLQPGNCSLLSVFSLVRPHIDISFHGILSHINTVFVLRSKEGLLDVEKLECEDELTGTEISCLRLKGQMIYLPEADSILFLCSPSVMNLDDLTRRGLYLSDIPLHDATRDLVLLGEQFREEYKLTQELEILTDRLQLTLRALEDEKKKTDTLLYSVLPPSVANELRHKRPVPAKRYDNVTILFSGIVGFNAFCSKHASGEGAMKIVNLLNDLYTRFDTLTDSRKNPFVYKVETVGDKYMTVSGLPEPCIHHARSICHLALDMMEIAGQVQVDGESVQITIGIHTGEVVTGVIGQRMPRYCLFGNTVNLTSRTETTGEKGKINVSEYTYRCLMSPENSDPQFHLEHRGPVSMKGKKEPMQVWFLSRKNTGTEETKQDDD
T1 sequence (Q02108 whole entry): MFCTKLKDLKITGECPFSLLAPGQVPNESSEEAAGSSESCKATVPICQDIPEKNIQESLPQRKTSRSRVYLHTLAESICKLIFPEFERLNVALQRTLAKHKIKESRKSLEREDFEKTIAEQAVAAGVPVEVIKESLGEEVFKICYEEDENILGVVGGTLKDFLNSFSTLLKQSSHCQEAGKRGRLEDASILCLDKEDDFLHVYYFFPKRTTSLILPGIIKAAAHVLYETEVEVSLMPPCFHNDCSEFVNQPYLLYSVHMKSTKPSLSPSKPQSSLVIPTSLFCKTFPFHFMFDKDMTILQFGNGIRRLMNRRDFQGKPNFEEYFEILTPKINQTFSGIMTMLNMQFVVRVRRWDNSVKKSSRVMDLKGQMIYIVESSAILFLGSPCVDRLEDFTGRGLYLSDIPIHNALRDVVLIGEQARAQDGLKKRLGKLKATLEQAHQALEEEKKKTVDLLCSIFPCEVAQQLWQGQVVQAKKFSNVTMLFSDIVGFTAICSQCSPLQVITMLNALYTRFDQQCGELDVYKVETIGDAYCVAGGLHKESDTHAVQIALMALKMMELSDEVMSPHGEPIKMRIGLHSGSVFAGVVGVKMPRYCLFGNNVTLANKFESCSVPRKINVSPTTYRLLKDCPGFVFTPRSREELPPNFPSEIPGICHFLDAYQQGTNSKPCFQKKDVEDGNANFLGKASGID

Structure (SMILES) | inhibition at 1 µM [1] | inhibition at 3 µM [1] | EC50 [1] | HEK WC Assay (fold increase at 30 μM in the presence of 10 μM SNP) [2] | EC50 [2] | Emax [2, 4] | Emax [2, 5] | Emax [2, 6] | HEK WC Assay (fold increase at 30 μM in the absence of SNP) [3] | inhibition at 10 µM [1]
Cc1ccccc1C(=O)Nc1cnc(-c2cc(-c3ccon3)n(Cc3ccccc3F)n2)nc1N [Compound I-184] | 80 to 100% | 100 to 120% | < 2 µM | E (E = 10 to <20 fold increase) | < 20 µM | 60 to 80% | 100 to 120% | 80 to 100% | E (E = 10 to <20 fold increase) | 
Nc1nc(-c2cc(-c3ccon3)n(Cc3ccccc3F)n2)ncc1NC(=O)c1ccccc1Cl [Compound I-185] | 60 to 80% | 100 to 120% | < 2 µM | E (E = 10 to <20 fold increase) | < 20 µM | 60 to 80% | 80 to 100% | 100 to 120% | E (E = 10 to <20 fold increase) | 100 to 120%
Nc1nc(-c2cc(-c3ncco3)n(Cc3ccccc3F)n2)ncc1NC(=O)c1ccccc1 [Compound I-186] | 60 to 80% | 80 to 100% | < 2 µM | F (F = 20 to <30 fold increase) | < 20 µM | 60 to 80% | 60 to 80% | 80 to 100% | D (D = 5 to <10 fold increase) | 100 to 120%
Nc1nc(-c2cc(-c3ccon3)n(Cc3ccccc3F)n2)ncc1NC(=O)c1cnco1 [Compound I-188] | 80 to 100% | 100 to 120% | < 2 µM | F (F = 20 to <30 fold increase) | < 20 µM | 40 to 60% | 60 to 80% | 60 to 80% | E (E = 10 to <20 fold increase) | 100 to 120%
CS(=O)(=O)c1cnc(-c2cc(-c3ccon3)n(Cc3ccccc3F)n2)nc1O [Compound I-196] | 60 to 80% | 80 to 100% | < 2 µM | E (E = 10 to <20 fold increase) | < 20 µM | 20 to 40% | 60 to 80% | 80 to 100% | C (C = 2 to <5 fold increase) | 80 to 100%
CC1(C(=O)Nc2cnc(-c3cc(-c4ccon4)n(Cc4ccccc4F)n3)nc2N)CC1 [Compound I-206] | 20 to 40% | 60 to 80% | < 2 µM | F (F = 20 to <30 fold increase) | < 20 µM | 100 to 120% | 100 to 120% | 100 to 120% | E (E = 10 to <20 fold increase) | 80 to 100%
Oc1nc(-c2cc(-c3ccon3)n(Cc3ccccc3F)n2)ncc1C(F)(F)F [Compound I-216] | 40 to 60% | 80 to 100% | < 2 µM | E (E = 10 to <20 fold increase) | < 20 µM | 20 to 40% | 40 to 60% | 40 to 60% | C (C = 2 to <5 fold increase) | 100 to 120%
O=S(=O)(c1ccccc1)c1cnc(-c2cc(-c3ccon3)n(Cc3ccccc3F)n2)nc1O [Compound I-217] | 40 to 60% | 60 to 80% | < 2 µM | F (F = 20 to <30 fold increase) | < 20 µM | 60 to 80% | 100 to 120% |  | D (D = 5 to <10 fold increase) | 80 to 100%
Nc1nc(-c2cc(-c3ccon3)n(Cc3ccccc3F)n2)ncc1NC(=O)C1(C(F)(F)F)CC1 [Compound I-237] | 60 to 80% | 80 to 100% | < 2 µM | F (F = 20 to <30 fold increase) | < 20 µM | 80 to 100% | 100 to 120% | 100 to 120% | E (E = 10 to <20 fold increase) | 100 to 120%
N#CC1(C(=O)Nc2cnc(-c3cc(-c4ccon4)n(Cc4ccccc4F)n3)nc2N)CC1 [Compound I-238] | 80 to 100% | 100 to 120% | < 2 µM | E (E = 10 to <20 fold increase) | < 20 µM | 80 to 100% | 100 to 120% | 100 to 120% | E (E = 10 to <20 fold increase) | 100 to 120%
CC(C)(C)C(=O)Nc1cnc(-c2cc(-c3ccon3)n(Cc3ccccc3F)n2)nc1N [Compound I-277] | 60 to 80% | 80 to 100% | < 2 µM | E (E = 10 to <20 fold increase) | < 20 µM | 60 to 80% | 80 to 100% | 80 to 100% | D (D = 5 to <10 fold increase) | 100 to 120%
Cc1csc(-c2cc(-c3ncccn3)nn2Cc2ccccc2F)n1 [Compound I-294] | 20 to 40% | 60 to 80% | < 2 µM | D (D = 5 to <10 fold increase) | 40 to 60 µM |  | 20 to 40% | 20 to 40% | B (B = 1 to <2 fold increase) | 100 to 120%
Nc1ccnc(-c2cc(-c3cnco3)n(Cc3ccccc3F)n2)n1 [Compound I-296] | 20 to 40% | 40 to 60% |  | E (E = 10 to <20 fold increase) | < 20 µM |  | 20 to 40% | 60 to 80% | C (C = 2 to <5 fold increase) | 80 to 100%
Fc1ccccc1Cn1nc(-c2ccccn2)cc1-c1ncon1 [Compound I-304] | 20 to 40% | 60 to 80% | < 2 µM | E (E = 10 to <20 fold increase) | 20 to 40 µM |  | 20 to 40% | 40 to 60% | C (C = 2 to <5 fold increase) | 80 to 100%
